Source: patent US20250369975A1, “METHOD FOR DETECTING TRANSTHYRETIN TETRAMER, AND METHOD FOR EVALUATING STABILITY” (SYSMEX CORPORATION, priority 2024, published 2025)
Where two headings read alike, the source gives them in different places.

Assays:
Format in all cases: binding
[1] = target: T1, TTR tetramer in blood sample (serum, plasma) (Homo sapiens, UniProt P02766); test: Example 2: same format, serially diluted serum and plasma samples; details: probe immobilized on solid phase
T1 construct: serially diluting commercially available serum (ProMedex Corporation, 12011378); tissue ProMedex Corporation (serum); host or cells: serum and plasma mix
Experimental: (§1) (1.2) Blood sample Six serum samples were prepared by serially diluting commercially available serum (ProMedex Corporation, 12011378) with 1% BSA/0.5% casein/PBS. Also six plasma samples were prepared by serially diluting a commercially available plasma mix with 1% BSA/0.5% casein/PBS.
The sample containing the recombinant TTR and the blood sample were the same as in Example 1. Probes C5 and C6 were diluted with 1% BSA/0.5% casein/PBS, to prepare a probe solution (0.3 μM). An ALP-labeled polyclonal anti-TTR antibody is used as the labeled antibody capable of binding to the TTR monomer. The labeled antibody was prepared by labeling a polyclonal rabbit anti-human prealbumin antibody (Agilent, A0002) with ALP by a usual method. […]
To each well of the plate, 300 μL of a blocking solution (1% BSA/0.5% casein/PBS) was added, followed by incubation for 1 hour at room temperature. […] 100 μL of a substrate solution of ALP was added to each well, and after 15 minutes, a chemiluminescence signal was measured with a plate reader. The samples were measured twice, and an average value of the two measured values was acquired. Results of measurement of the sample that contains the recombinant TTR are illustrated in FIGS. 16A and B. Measured results of the blood samples are illustrated in FIGS. 17A to D.

[2] = test system: TTR tetramer (recombinant human transthyretin WT, T119M, V30M); details: probe solution 0.3 μM immobilized on solid phase; recombinant TTR 100 ng/mL; FIG. 16A-B
[3] = target: T2, TTR tetramer (wild-type recombinant human transthyretin) (Homo sapiens, UniProt P02766); test: Example 5: HISCL-5000 automated immunoassay, tagged probe, streptavidin magnetic particle, ALP-labeled monoclonal anti-TTR antibody; details: R1 reagent 0.3 μM probe; WT TTR 10 and 100 μg/mL; FIG. 21B
T2 construct: purchased AlexoTech T-500-10
Experimental: A sample containing wild-type (WT) recombinant TTR at respective concentrations of 10 μg/mL and 100 μg/mL was prepared by diluting transthyretin (wild-type) human, recombinant (AlexoTech, T-500-10) with 1% BSA/0.5% casein/PBS.
(2.1) R1 reagent As R1 buffer, a […] buffer (pH 8.0±0.05) containing 1% BSA, 0.15 g/L mouse IgG, 0.1% sodium azide, […], 0.1% Tween® 20 and 20 mg/mL alkaline phosphatase (AP) mutein was prepared. Probe C5 was diluted with R1 buffer, to prepare R1 reagent (0.1 μM) containing probe C5. Probe C6 was also diluted with R1 buffer, to prepare R1 reagent (0.3 μM) that contains probe C6.
As R3 buffer, a 0.1 mol/L HEPES buffer (pH 8.0±0.05) containing 1% BSA, 0.15 g/L murine IgG, 0.1% sodium azide, 0.15 mol/L NaCl, 0.1% Tween20.20 mg/mL AP mutein, 1.0 mmol/L MgCl, and 0.1 mmol/L ZnCl of 2 was prepared. An ALP-labeled monoclonal anti-TTR antibody was used as the labeled antibody capable of binding to the TTR monomer. […]
50 μL of each R1 reagent was added to the cuvette, to which 30 μL of the sample was then added, followed by incubation for 2.5 minutes. […] Five minutes later, the chemiluminescence signal was measured with HISCL-5000. As a control (blank), the sample was similarly measured with use of 30 μL of 1% BSA/0.5% casein/PBS instead of the sample. […]

[4] = test system: TTR tetramer (recombinant human transthyretin WT, T119M, V30M); details: probe solution 0.2 μM mixed with sample; FIG. 18A-B
[5] = test system: TTR tetramer (recombinant human transthyretin WT, T119M, V30M); details: probe solution 10 μM; recombinant TTR 100 ng/mL; FIG. 14A-D
[6] = target: T3, TTR tetramer in plasma sample (Homo sapiens, UniProt P02766); test: Example 3: same format, serially diluted plasma samples; details: probe solution 0.2 μM, FIG. 19B
T3 construct: serially diluting commercially available serum (ProMedex Corporation, 12011378); tissue ProMedex Corporation (serum); host or cells: serum and plasma mix
Experimental: as §1
The sample containing the recombinant TTR and the plasma sample were the same as in Example 1. Probes C5 and C6 were diluted with 1% BSA/0.5% casein/PBS, to prepare a probe solution (0.2 μM). The same ALP-labeled polyclonal anti-TTR antibody as in Example 2 was diluted 3200 times with 1% BSA/0.1% goat IgG/0.01% mouse IgG/0.005% scavenger ALP/PBS, to prepare a labeled antibody solution. The substrate solution and solid phase of ALP were the same as those in Example 2.
150 μL of each sample and 150 μL of the probe solution were mixed, and incubated at room temperature for 1 hour. As a control (blank), instead of the sample, 150 μL of 1% BSA/0.5% casein/PBS and 150 μL of the probe solution were mixed, and incubated in the same manner. […] 100 μL of a substrate solution of ALP was added to each well, and after 15 minutes, a chemiluminescence signal was measured with a plate reader. The samples were measured twice, and an average value of the two measured values was acquired. […]

## O=C(CCCCC1SCC2NC(=O)NC21)NCCOCCOCCOCCOCCOCCOCCOCCOCCOCCOCCOCCOCCC(=O)Nc1ccc(/C=C/c2cc(Br)c(O)c(Br)c2)cc1 (stereo not shown) [Probe C6, Biotin-PEG12-Stilbene Derivative]
[1]; serially diluted plasma, FIG. 17D
  signal measured value of the plasma sample versus dilution factor: similarly increased according to the dilution factor
[1]; serially diluted serum, FIG. 17C
  signal measured value of the serum sample versus dilution factor: increased according to the dilution factor
[2]
  chemiluminescence signal measured values of WT, T119M and V30M samples versus blank: a result similar to that of FIG. 16 A
[3]
  signal measured value versus level of recombinant TTR in the sample: increased corresponding to the level of the recombinant TTR in the sample
[4]
  chemiluminescence signal measured values of WT, T119M and V30M samples versus blank: a result similar to that of FIG. 18 A
[5]
  chemiluminescence signal measured values of WT, T119M and V30M samples versus blank: results similar to those of FIG. 14 A
[6]
  signal measured value of the plasma sample versus dilution factor: increased according to the dilution factor
